Measurements taken from PubChem BioAssay (NCI).
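Tested at 5 concentrations; 48 h exposure; 96-well plates; endpoints linearly interpolated, else capped at highest concentration. At the TGI there is no net growth.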

Legend:
Assay in all cases: DTP human tumour cell line panel, 48 h
OVCAR-5 ovarian = tested on: OVCAR-5 ovarian
A549 NSCLC = tested on: A549 NSCLC
COLO 205 colon = tested on: COLO 205 colon
SF-295 CNS = tested on: SF-295 CNS
U251 CNS = tested on: U251 CNS
CAKI-1 renal = tested on: CAKI-1 renal
MDA-N = tested on: MDA-N
TK-10 renal = tested on: TK-10 renal
HT29 colon = tested on: HT29 colon
NCI-H522 lung = tested on: NCI-H522 lung
A498 renal = tested on: A498 renal
NCI-H23 lung = tested on: NCI-H23 lung
SK-MEL-5 melanoma = tested on: SK-MEL-5 melanoma
SR leukemia = tested on: SR leukemia
SF-268 CNS = tested on: SF-268 CNS
HCT-15 colon = tested on: HCT-15 colon
PC-3 prostate = tested on: PC-3 prostate
UACC-257 melanoma = tested on: UACC-257 melanoma
NCI-H226 lung = tested on: NCI-H226 lung
HS 578T breast = tested on: HS 578T breast
OVCAR-3 ovarian = tested on: OVCAR-3 ovarian
SK-MEL-2 melanoma = tested on: SK-MEL-2 melanoma
SW-620 colon = tested on: SW-620 colon
HL-60(TB) leukemia = tested on: HL-60(TB) leukemia
MOLT-4 leukemia = tested on: MOLT-4 leukemia
SNB-19 CNS = tested on: SNB-19 CNS
ACHN renal = tested on: ACHN renal
UACC-62 melanoma = tested on: UACC-62 melanoma
IGROV1 ovarian = tested on: IGROV1 ovarian
KM12 colon = tested on: KM12 colon
UO-31 renal = tested on: UO-31 renal
SF-539 CNS = tested on: SF-539 CNS
M14 melanoma = tested on: M14 melanoma
MCF7 breast = tested on: MCF7 breast
OVCAR-8 ovarian = tested on: OVCAR-8 ovarian
OVCAR-4 ovarian = tested on: OVCAR-4 ovarian
T-47D breast = tested on: T-47D breast
EKVX NSCLC = tested on: EKVX NSCLC
BT-549 breast = tested on: BT-549 breast
786-0 renal = tested on: 786-0 renal
SK-OV-3 ovarian = tested on: SK-OV-3 ovarian
MALME-3M melanoma = tested on: MALME-3M melanoma
RPMI-8226 leukemia = tested on: RPMI-8226 leukemia
K-562 leukemia = tested on: K-562 leukemia
SK-MEL-28 melanoma = tested on: SK-MEL-28 melanoma
HCC-2998 colon = tested on: HCC-2998 colon
DU-145 prostate = tested on: DU-145 prostate
HOP-62 NSCLC = tested on: HOP-62 NSCLC
SN12C renal = tested on: SN12C renal
RXF 393 renal = tested on: RXF 393 renal
NCI/ADR-RES ovarian = tested on: NCI/ADR-RES ovarian
HOP-92 NSCLC = tested on: HOP-92 NSCLC
LOX IMVI melanoma = tested on: LOX IMVI melanoma
MDA-MB-231 breast = tested on: MDA-MB-231 breast
HCT-116 colon = tested on: HCT-116 colon
NCI-H460 lung = tested on: NCI-H460 lung
SNB-75 CNS = tested on: SNB-75 CNS
CCRF-CEM leukemia = tested on: CCRF-CEM leukemia
MDA-MB-435 = tested on: MDA-MB-435

N#CC1=C(N)OC2=C(CCCc3ccc([N+](=O)[O-])cc32)C1c1ccccc1 (configuration not stated)
TGI (OVCAR-5 ovarian): 43.1 µM
TGI (A549 NSCLC): > 100 µM
TGI (COLO 205 colon): 13.7 µM
TGI (SF-295 CNS): 13.9 µM
TGI (U251 CNS): 17.5 µM
TGI (CAKI-1 renal): > 100 µM
TGI (MDA-N): 5.38 µM
TGI (TK-10 renal): 49.1 µM
TGI (HT29 colon): 12.2 µM
TGI (NCI-H522 lung): 10.9 µM
TGI (A498 renal): 10.5 µM
TGI (NCI-H23 lung): 36 µM
TGI (SK-MEL-5 melanoma): 13 µM
TGI (SR leukemia): 9.56 µM
TGI (SF-268 CNS): 21.9 µM
TGI (HCT-15 colon): 16.7 µM
TGI (PC-3 prostate): 44.7 µM
TGI (UACC-257 melanoma): 24.6 µM
TGI (NCI-H226 lung): 31 µM
TGI (HS 578T breast): > 100 µM
TGI (OVCAR-3 ovarian): 6.33 µM
TGI (SK-MEL-2 melanoma): 34.1 µM
TGI (SW-620 colon): 15.7 µM
TGI (HL-60(TB) leukemia): 4.19 µM
TGI (MOLT-4 leukemia): 18.7 µM
TGI (SNB-19 CNS): 45.2 µM
TGI (ACHN renal): 45.2 µM
TGI (UACC-62 melanoma): 6.12 µM
TGI (IGROV1 ovarian): 23.7 µM
TGI (KM12 colon): 14.8 µM
TGI (UO-31 renal): 20.9 µM
TGI (SF-539 CNS): 12.7 µM
TGI (M14 melanoma): 12.4 µM
TGI (MCF7 breast): 15.2 µM
TGI (OVCAR-8 ovarian): 22.4 µM
TGI (OVCAR-4 ovarian): > 100 µM
TGI (T-47D breast): 30.5 µM
TGI (EKVX NSCLC): 35.2 µM
TGI (BT-549 breast): 29.7 µM
TGI (786-0 renal): 26.9 µM
TGI (SK-OV-3 ovarian): 58.5 µM
TGI (MALME-3M melanoma): 20.6 µM
TGI (RPMI-8226 leukemia): 10.9 µM
TGI (K-562 leukemia): 13.8 µM
TGI (SK-MEL-28 melanoma): 22.4 µM
TGI (HCC-2998 colon): 6.41 µM
TGI (DU-145 prostate): 15.4 µM
TGI (HOP-62 NSCLC): 17.4 µM
TGI (SN12C renal): 20.4 µM
TGI (RXF 393 renal): 8.88 µM
TGI (NCI/ADR-RES ovarian): 7.45 µM
TGI (HOP-92 NSCLC): 44.9 µM
TGI (LOX IMVI melanoma): 19.6 µM
TGI (MDA-MB-231 breast): > 100 µM
TGI (HCT-116 colon): 16 µM
TGI (NCI-H460 lung): 23.1 µM
TGI (SNB-75 CNS): > 100 µM

CN(C)C1C(CO)OC(n2cnc3c(N)ncnc32)C1O (configuration not stated)
TGI (OVCAR-5 ovarian): > 100 µM
TGI (A549 NSCLC): > 100 µM
TGI (COLO 205 colon): > 100 µM
TGI (SF-295 CNS): > 100 µM
TGI (U251 CNS): > 100 µM
TGI (CAKI-1 renal): > 100 µM
TGI (MDA-N): > 100 µM
TGI (TK-10 renal): > 100 µM
TGI (HT29 colon): > 100 µM
TGI (NCI-H522 lung): > 100 µM
TGI (A498 renal): > 100 µM
TGI (NCI-H23 lung): > 100 µM
TGI (SK-MEL-5 melanoma): > 100 µM
TGI (SR leukemia): > 100 µM
TGI (SF-268 CNS): > 100 µM
TGI (HCT-15 colon): > 100 µM
TGI (PC-3 prostate): > 100 µM
TGI (UACC-257 melanoma): > 100 µM
TGI (NCI-H226 lung): > 100 µM
TGI (HS 578T breast): > 100 µM
TGI (OVCAR-3 ovarian): > 100 µM
TGI (SK-MEL-2 melanoma): > 100 µM
TGI (SW-620 colon): > 100 µM
TGI (HL-60(TB) leukemia): > 100 µM
TGI (MOLT-4 leukemia): > 100 µM
TGI (SNB-19 CNS): > 100 µM
TGI (ACHN renal): > 100 µM
TGI (UACC-62 melanoma): > 100 µM
TGI (IGROV1 ovarian): > 100 µM
TGI (KM12 colon): > 100 µM
TGI (UO-31 renal): > 100 µM
TGI (SF-539 CNS): > 100 µM
TGI (M14 melanoma): > 100 µM
TGI (MCF7 breast): > 100 µM
TGI (OVCAR-8 ovarian): > 100 µM
TGI (OVCAR-4 ovarian): > 100 µM
TGI (T-47D breast): > 100 µM
TGI (EKVX NSCLC): > 100 µM
TGI (BT-549 breast): > 100 µM
TGI (786-0 renal): > 100 µM
TGI (SK-OV-3 ovarian): > 100 µM
TGI (RPMI-8226 leukemia): > 100 µM
TGI (K-562 leukemia): > 100 µM
TGI (SK-MEL-28 melanoma): > 100 µM
TGI (DU-145 prostate): > 100 µM
TGI (HOP-62 NSCLC): > 100 µM
TGI (SN12C renal): > 100 µM
TGI (NCI/ADR-RES ovarian): > 100 µM
TGI (CCRF-CEM leukemia): > 100 µM
TGI (MDA-MB-435): > 100 µM
TGI (LOX IMVI melanoma): > 100 µM
TGI (MDA-MB-231 breast): > 100 µM
TGI (HCT-116 colon): > 100 µM
TGI (NCI-H460 lung): > 100 µM
TGI (SNB-75 CNS): > 100 µM
